Common to all, as to type: cell-based
The test system of one series is Vero E6 cells. Briefly: Cytotoxicity test of drug (CCK-8 kit). As to conditions: for Cell viability: Vero E6, 48 h. As to the method: (§1) The detection of the drug cytotoxicity was performed using CCK-8 kit (Beoytime). Specific steps were as follows:
(§2) 1) 1×10^4 Vero E6 (ATCC) cells were placed in a 96-well plate and incubated at 37° C. for 8 hours.
(§3) 2) The drug was diluted with DMSO to an appropriate concentration of mother liquor, and then diluted with MEM medium (purchased from Gibco, Catalog No. 10370021) containing 2% FBS (purchased from Gibco, Catalog No. 16000044) to the same concentration as that for the drug treatment. The original medium in the 96-well plate was discarded, 100 μL of drug-containing MEM medium was added to the cells, and three replicate wells were prepared for each concentration. Negative control (vehicle group, DMSO and medium were added to the cell wells, without adding drug) and blank control (DMSO and medium were added to the wells, without cells) were set up. After the drug was added, the cells were cultured at 37° C. for 48 hours.
(§4) 3) 20 μL of CCK-8 solution (Beoytime) was added to the well to be tested, mixed gently, without generating bubbles, and continuously incubated at 37° C. for 2 hours. OD450 was read on a microplate reader (purchased from Molecular Devices, Model: SpectraMax M5), and cell viability was calculated:
(§5) Cell activity (%)=(A(drug treatment group)−A(blank control))/(A(vehicle control)−A(blank control))=100%
(§6) wherein A was the reading of the microplate reader.

Series [1] is described as follows: Cytotoxicity test of drug (CCK-8 kit). As to conditions: African green monkey, Vero E6 cells. Here is the method: as §1, §2, §3, §4, §5, §6
A general note: Tetrazolium assays rely on reduction of a dye to a coloured formazan, in cell work by metabolically active cells.

The subject of a further series is SARS-CoV-2. Nature of the series: Reduction of viral nucleic acid load of Vero E6 cells infected by SARS-CoV-2 (qRT-PCR of supernatant). As to conditions: for Viral genome copy number (MOI = 0.05): infected supernatant, 48 h, vehicle 2215912896 ± 388319129. For orientation: Quantitative PCR measures a nucleic acid by following its amplification.

Molecules are shown by their SMILES.

Broadly, the CC50 is the concentration giving 50% cytotoxicity. Low readings indicate harm at low concentration, high ones better tolerance by the cells. One may read the EC50 as the concentration giving half of the maximal effect.

As to `C=C(C)[C@@H]1CCC(C)=C[C@H]1c1c(O)cc(CCCCC)cc1O` [cannabidiol, (−)-2-[(3R,4R)-p-mentha-1,8-dien-3β-yl]-5-pentylresorcinol], the Cell viability in the series with Vero E6 cells (0.78 μM) came to 73.45 ± 7.48%; in the series with Vero E6 cells (1.56 μM), 74.22 ± 13.42%; in the series with Vero E6 cells (3.13 μM) it was 58.45 ± 5.30%; with Vero E6 cells (6.25 μM), 60.07 ± 6.01%; in the series with Vero E6 cells (12.5 μM), 50.01 ± 8.40%; with Vero E6 cells (25 μM), 38.39 ± 5.70%. Moreover, the Cell viability in the series on Vero E6 cells (50 μM) is recorded as 22.85 ± 18.47%; in the series with Vero E6 cells (100 μM), 8.87 ± 3.59%. In the series on Vero E6 cells (concentrations of 1.56 μM and 0.78 μM), the “Change of cell viability” value is listed as “did not change the cell viability”. Further, in series [1], the midpoint of cytotoxicity, the CC50 at 48 h, lay at 4.1 µM. Besides, the “Viral genome copy number (MOI = 0.05)” value with SARS-CoV-2 (0.04 μM) was 1853011000 ± 279114748; in the series on SARS-CoV-2 (0.12 μM), 1860569042 ± 365350110; with SARS-CoV-2 (0.37 μM) it was 1224296104 ± 183149682; in the series on SARS-CoV-2 (1.11 μM), 877127896 ± 122398434; with SARS-CoV-2 (3.33 μM) it was 668555500 ± 83251338. Further, the “Inhibition of viral RNA load on cells” value in the series on SARS-CoV-2 (48 h after infection of vero E6 cells with SARS-CoV-2 (FIG. 1)) is reported as “the inhibitory activity was dose-dependent”. The EC50 in the series with SARS-CoV-2 (Severe acute respiratory syndrome coronavirus 2, Vero C1008, Vero E6 cells, read-out: EC50 against SARS-CoV-2) was 0.62 µM. In addition, the “Inhibition of replication of the SARS-CoV-2 virus genome in the infected supernatant” value in the series on SARS-CoV-2 (concentrations of 10 μM, 3.3 μM, 1.1 μM and 0.37 μM) is reported as “could effectively inhibit the replication”.

The values are drawn from patent US20230263811A1, “APPLICATION OF C[…] TREATMENT OF CORONAVIRUS INFECTIONS” (ACADEMY OF MILITARY MEDICAL SCIENCES, priority 2020, published 2023).
